Marks after values point to notes of the source that are not given here.
Key:
[1] = tested on: Staphylococcus aureus BAA-44 (multi-drug resistant MRSA); test: MIC and MBC of Compound 10 in the absence of light (NCCLS-based broth dilution); format: cell-based; details: S. aureus BAA-44, subculture on nutrient agar, further 24 hours
Text: The minimum inhibitory concentration (MIC) for an antimicrobial agent against a specific microorganism is defined as the minimum concentration of an antibacterial agent where no apparent visible growth of the organism is observed (FDA definition of Minimum Inhibitory Concentration). MIC's are typically determined using concentrations derived traditionally from serial twofold dilutions (National Committee for Clinical Laboratory Standards (NCCLS) Handbook M7-A5: “Methods for Dilution Antimicrobial Susceptibility Tests for Bacteria that Grow Aerobically; Approved Standard—5th Edition” Volume 20 Number 2. January 2000). The MIC for Compound 10 in the absence of light was investigated, using a protocol based on the MIC protocol produced by the NCCLS (National Committee for Clinical Laboratory Standards (NCCLS) Handbook M7-A5, supra).
Staphylococcus aureus BAA-44, a multi-drug resistant Methicillin Resistant Staphylococcus aureus (MRSA) strain obtained from the ATCC catalogue, was used in this study. The following concentrations of Compound 10 were investigated: 0.764; 0.382; 0.191; 0.0955; 0.0478; 0.0239, 0.0119, 0.00597, 0.00298, 0.00149, 0.00075 & 0.00037 μg/mL. Stock solutions were made up in distilled water and serial dilutions undertaken of this to produce the required concentrations immediately prior to use […]

Enterococcus faecium = test: MIC (IsoSensitest broth) and MBC (subculture onto Columbia blood agar), reference strains and clinical isolates; format: cell-based; details: dark, 24 hours
Method: (§1) The Minimum Inhibitory Concentrations (MIC's) for Compound 10, over a range of reference strains and clinical isolates, were determined using IsoSensitest® broth and Minimum Bactericidal concentrations (MBC's) determined by subculture onto Columbia blood agar.
(§2) • 1. A 5 mg/ml stock solution of Compound 10 was made up in water • 2. A series of dilutions were undertaken to produce a range of concentrations between 32-0.001 mg/L • 3. The test microorganisms were grown up overnight in IsoSensitest® broth • 4. The cultures were then diluted with fresh broth to a final concentration of 10^4 organisms/ml and placed on a shaker for 90 minutes at 37° C. • 5. 90 μl of the broth culture containing the microorganisms were transferred to each of 12 wells in a row in a microtitre tray and repeated in a control tray—four organisms per tray. • 6. 90 μL of the appropriate Compound 10 dilution was then added to each well containing organisms to give a final dilution series from 16 mg/L to 0.0005 mg/L • 7. The solutions were mixed well and incubated in the dark for 24 hours • 8. […] The MBC values were recorded after overnight incubation of the subcultures. • 10. Controls of uninoculated broth and broth plus inoculum were undertaken for each organism in each tray Results

Enterococcus faecalis = test: as above; format: cell-based; details: dark, 24 hours
Method: as §1, §2

[2] = Acute dermal toxicity test (OECD 402); format: in vivo; details: 3.2 mM in a topical formulation
Method: Compound 10 was tested at 3.2 mM in a topical formulation in a standard acute dermal toxicity test to determine if any clinical or histological toxicity for the compound could be detected.
The acute toxicity protocol was based on OECD Guidelines for the testing of chemicals/Section 4—Health Effects Test Number 402: Acute Dermal Toxicity.

[3] = tested on: range of S. aureus strains including MSSA, healthcare-associated and community-associated MRSA; details: previously shown (Love et al. 2008); cited from earlier work
[4] = tested on: normal human dermal fibroblasts (NHDF); test: Toxicity against human skin cells, MTT-assay; format: cell-based; details: 5 min, 1 h, 4 h incubation, 0.01-10 μM, then 24 h in the dark
Method: NHDF were incubated with different concentrations of Compound 10 for 5 min, 1 h and 4 h (0 μM, 0.01 μM, 0.1 μM, 1.0 μM, 10 μM). Cells were then incubated for 24 h in the dark. Toxicity was tested by standard MTT-assay. Cell viability was normalised to one, which means, the values of control cells were normalised to one. Grey dotted line: 5 min incubation; black dotted: 1 h incubation; black line: 4 h incubation; (n=3, mean±SD).
(§3) Test compounds were screened for toxicity against cultured human skin cells using normal human epidermal keratinocytes (NHEK) and normal human dermal fibroblasts (NHDF), purchased from CellSystems Biotechnologie GmbH, Germany.
(§4) The NHEK and NHDF cells were used between passages 3 and 10. The cells were seeded with 7.5 and/or 15×10^4 cells/well (microtitre plate) and were allowed to attach overnight in an incubator (37° C., 5% CO2). After incubation with different concentrations of the selected photosensitisers for various times, the cells were incubated for 24 hours in the dark.
(§5) Toxicity was tested by standard MTT-assay (Mossman et al., 1983 J. Immunological Methods 65: 55-63). MTT is an indicator of metabolically active cells. Dependent on enzyme activity in mitochondria a colour reaction can be visualised, which can be measured by ELISA reader (540 nm). […]

[5] = tested on: normal human epidermal keratinocytes (NHEK); test: Toxicity against human skin cells, MTT-assay; format: cell-based; details: 5 min, 1 h, 4 h incubation, 0.01-10 μM, then 24 h in the dark
Method: NHEK were incubated with different concentrations of Compound 10 for 5 min, 1 h and 4 h (0 μM, 0.01 μM, 0.1 μM, 1.0 μM, 10 μM). Cells were then incubated for 24 h in the dark. Toxicity was tested by standard MTT-assay. Cell viability was normalised to one, which means, the values of control cells were normalised to one. Red dotted line: 5 min incubation; black dotted: 1 h incubation; blue dotted: 4 h incubation only; (n=3, mean±SD).
as §3, §4, §5

Q: For `C[N+](C)(C)CCCOc1ccc(-c2c3nc(cc4ccc([nH]4)c(-c4ccc(OCCC[N+](C)(C)C)cc4)c4nc(cc5ccc2[nH]5)C=C4)C=C3)cc1.[Cl-].[Cl-]` [Compound 10, 5,15-bis-[4-(3-Trimethylammonio-propyloxy)-phenyl]-porphyrin dichloride], which MBC [1] is on record?
A: The MBC was 0.382* μg/mL.

Q: What about the “Cpd 10 MIC” value (Enterococcus faecium; strain E5 (clinical isolate)) of the same compound?
A: The value was 0.5 µg/mL.

Q: What about the “Cpd 10 MIC” value (Enterococcus faecium; strain E19 (clinical isolate)) of the same compound?
A: The value was 0.5 µg/mL.

Q: What about the “Cpd 10 MIC” value (Enterococcus faecium; strain E44 (clinical isolate)) of the same compound?
A: The value was 0.5 µg/mL.

Q: What about the “Cpd 10 MIC” value (Enterococcus faecalis; strain E4 (clinical isolate)) of the same compound?
A: Its value is 0.5 µg/mL.

Q: What about the “Cpd 10 MIC” value (Enterococcus faecalis; strain E10 (clinical isolate)) of the same compound?
A: Its value is 0.5 µg/mL.

Q: And the “Cpd 10 MIC” value (Enterococcus faecalis; strain E37 (clinical isolate))?
A: The value was 0.5 µg/mL.

Q: What about the “Acute dermal toxicity (clinical and histological)” value [2] of the same compound?
A: The value was “does not result in any acute toxic effect”.

Q: And the MBC50 [3]?
A: The MBC50 was 1 µg/mL.

Q: What about the MIC50 [3] of the same compound?
A: The MIC50 was 1 µg/mL.

Q: What about the “Innate toxicity (cell viability, MTT)” value [4] of the same compound?
A: Its value is “does not demonstrate an innate toxicity”.

Q: What about the “Innate toxicity (cell viability, MTT)” value [5] of the same compound?
A: Its value is “does not demonstrate an innate toxicity”.
